The target of this assay is Eukaryotic peptide chain release factor GTP-binding subunit ERF3A (Homo sapiens, UniProt P15170).

The structures appear in SMILES notation. A value given as a limit tells only on which side of the number the result lay.

Eukaryotic peptide chain release factor GTP-binding subunit ERF3A, sequence (P15170 whole entry): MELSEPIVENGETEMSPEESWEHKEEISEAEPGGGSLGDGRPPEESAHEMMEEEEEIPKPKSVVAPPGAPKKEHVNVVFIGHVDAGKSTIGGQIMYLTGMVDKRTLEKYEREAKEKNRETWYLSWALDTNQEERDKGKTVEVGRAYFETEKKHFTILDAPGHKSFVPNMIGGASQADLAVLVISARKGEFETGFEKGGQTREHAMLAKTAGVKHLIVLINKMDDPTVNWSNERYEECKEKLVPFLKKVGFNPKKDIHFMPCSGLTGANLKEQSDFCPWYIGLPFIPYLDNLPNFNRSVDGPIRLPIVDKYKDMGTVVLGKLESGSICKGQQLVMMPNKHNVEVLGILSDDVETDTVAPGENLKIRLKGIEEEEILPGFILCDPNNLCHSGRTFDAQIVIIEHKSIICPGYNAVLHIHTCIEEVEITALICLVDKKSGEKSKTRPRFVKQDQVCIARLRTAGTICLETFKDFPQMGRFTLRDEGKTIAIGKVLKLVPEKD

For orientation: EC50 means the concentration at which the effect is half-maximal. With `CN[C@H]1CC=CC[C@@H]1N(C)c1ccc2c(c1)CN(C1CCC(=O)NC1=O)C2=O` (stereo partly specified), the 50% effective concentration (EC50) was > 50 µM.

The values above are taken from ChEMBL document CHEMBL5728835, “3-(5-amino-1-oxoisoindolin-2-yl)piperidine-2,6-dione derivatives and uses thereof” (2021).
